The source of these data is patent US20100285000A1, “USE OF VEGFR-2 INHIBITORS FOR TREATING METASTATIC CANCER” (BRISTOL-MYERS SQUIBB COMPANY, priority 2007, published 2010).

The conditions of experiment [1]: Bhuyan et al. Cancer Res. 42, 3532-3537 (1982); cited from earlier work.
Experiment [2] relates to MDA-MB-231 breast cancer cells. As to the kind of experiment: MDA-MB-231 orthotopic model of tumor metastasis (lung metastases after resection of the primary tumor). Format: in vivo. The following applies: human MDA-MB-231 cells in mouse mammary fat pad, tumors resected day 24, treatment from day 28, IP twice weekly; Comp-I 30 mg/kg, bevacizumab 5 mg/kg; control cohort 84%. The source says:
MDA-MB-231 breast tumor cells implanted in mammary fat pad of mice and resultant tumors resected day 24. Drug treatment was initiated on day 28 and mice were sacrificed at 118 days and local regrowth and lung metastases evaluated.
Human MDA-MB-231 breast cancer cells were implanted in the mouse mammary fat pads at day 0 (1×10^6 MDA-MB-231 breast cancer cells). The resultant tumors were resected at day 24 and treatment initiated 4 days later (Mean tumor volume at resection=400 mm^3). Treatment groups were as follows: Control: PBS, Comp-I: 30 mg/kg, and bevacizumab 5 mg/kg (100 μL IP injections twice weekly). When mice were sacrificed, the extent of local regrowth and numbers of lung metastases were evaluated.

Regarding `COc1c(O)c2c(c3cc(C(=O)N4CCc5c4c(O)c(OC)c4[nH]c(C(=O)N6CC7CC78C6=CC(=O)c6[nH]cc(C)c68)cc54)[nH]c13)CCN2C(N)=O` (centres unmarked) [CC-1065], in experiment [1], the “potency in vitro relative to commonly used anti-cancer drugs (doxorubicin, methotrexate, vincristine)” value is “about 1000 fold”. Turning to bevacizumab, the “mice showing lung metastases (incidence of metastases)” value in experiment [2] is reported as 74%.
